Measurements: patent EP1618784A1, “AQUEOUS AGRICULTURAL-CHEMICAL SUSPENSION COMPOSITION” (KUMIAI CHEMICAL INDUSTRY CO., LTD., priority 2003, dated 2004)
Where a name gives a salt, the structure may show the parent alone. Read-outs that look alike come from different tables or passages of the source.

Assays:
[1] = cited from earlier work
[2] = Solubility of the agrochemically active ingredient in the aqueous solution of water-soluble compound (B); type: physicochemical
Procedure: While the method for measuring the solubility of the agrochemically active ingredient as the component (A) in the aqueous solution of the water-soluble compound as the component (B) is not particularly limitative, the method contains, for example, adding an excess amount of the agrochemically active ingredient in an aqueous solution in which given quantities of the water-soluble compound are dissolved in water, filtering the solution with a membrane filter after stirring at room temperature for several hours, and analyzing the concentration in the filtrate according to an analysis method of the respective agrochemically active ingredients to calculate the solubility. The concentrations of the water-soluble compounds for allowing the solubility of the respective agrochemically active ingredients to be smaller than 2 g/100 ml are determined in the invention by preparing aqueous solutions with different concentrations of variety of the component (B) such as an inorganic acid, the specified organic acid and alkali metal salt and ammonium salt thereof and by measuring the solubility of the agrochemically active ingredient in each aqueous solution.

CCc1c(C(=O)[O-])c(=O)cnn1-c1ccc(Cl)cc1.[K+] [clofencet-potassium, potassium 2-(4-chlorophenyl)-3-ethyl-2,5-dihydro-5-oxopyridazine-4-carboxylate]
solubility in water ([1]; 20 °C, pure water): at least 65.5 g/100 ml

Oc1cccc2cccnc12 [8-hydroxyquinoline sulfate, bis(8-hydroxyquinolinium)sulfate]
solubility in water ([1]; 20 °C, pure water): 30 g/100 ml

COC(=O)c1ccc(C(F)(F)F)nc1S(=O)(=O)NC(=O)Nc1nc(OC)cc(OC)n1.[Na] [flupyrsulfuron-methyl-sodium, methyl 2-(4,6-dimethoxypyrimidine-2-ylcarbamoylsulfamoyl)-6-trifluoromethylnicotinate monosodium salt]
solubility in water ([1]; 20 °C, pure water): 6.3 g/100 ml

COc1cc(OC)nc(Oc2cccc(Oc3nc(OC)cc(OC)n3)c2C(=O)[O-])n1.[Na+] [bispyribac-sodium, sodium 2,6-bis(4,6-dimethoxypyrimidin-2-yloxy)benzoate]
solubility in water ([1]; 20 °C, pure water): 7.3 g/100 ml
solubility ([2]; aqueous ammonium hydrogencarbonate, 3.1 parts ammonium hydrogencarbonate in 75.4 parts water (Example 4)): 9000 µg/mL
solubility ([2]; aqueous sodium chloride, 3.1 parts sodium chloride in 75.4 parts water (Example 3)): 6000 µg/mL
solubility ([2]; aqueous sodium hydrogencarbonate/sodium carbonate, 1.4 parts sodium hydrogencarbonate and 0.16 part sodium carbonate in 76.94 parts water (Comparative Example 2)): 30000 µg/mL
solubility ([2]; aqueous sodium hydrogencarbonate/sodium carbonate, 1.6 parts sodium hydrogencarbonate and 0.18 part sodium carbonate in 46.77 parts water (Example 1)): 14000 µg/mL
solubility ([2]; aqueous sodium hydrogencarbonate/sodium carbonate, 3.9 parts sodium hydrogencarbonate and 0.44 part sodium carbonate in 74.16 parts water (Example 2)): 4000 µg/mL

COC(=O)NS(=O)(=O)c1ccc(N)cc1.[Ca] [asulam-calcium, calcium methyl sulfanilylcarbamate]
solubility in water ([1]; 20 °C, pure water): 20 g/100 ml

Cc1cc(Cl)ccc1OCC(=O)[O-].[Na+] [MCPA-sodium, sodium (4-chloro-2-methylphenoxy)acetate]
solubility in water ([1]; water): 27 g/100 ml

COc1nn(C(=O)NS(=O)(=O)c2ccccc2OC(F)(F)F)c(=O)n1C [flucarbazone-sodium, 4,5-dihydro-3-methoxy-4-methyl-5-oxo-N-[(2-(trifluoromethoxy)phenylsulfonyl]-1 H-1,2,4-triazole-1-carboxyamidesodium salt]
solubility in water ([1]; 20 °C, pure water): 4.4 g/100 ml
solubility ([2]; aqueous acetic acid/sodium acetate, 0.23 part acetic acid and 2.8 parts sodium acetate in 73.77 parts water (Example 5)): 11000 µg/mL

CN/C(=N/CC1CCOC1)N[N+](=O)[O-] (racemic) [dinotefuran, (EZ)-(RS)-1-methyl-2-nitro-3-(tetrahydro-3-furylmethyl)guanidine]
solubility in water ([1]; 20 °C, pure water): 5.43 g/100 ml

COc1cc(OC)nc(Sc2cccc(Cl)c2C(=O)[O-])n1.[Na+] [pyrithiobac-sodium, sodium 2-chloro-6-(4,6-dimethoxypyrimidin-2-ylthio)benzoate]
solubility in water ([1]; 20 °C, at pH 5): 26.4 g/100 ml
